Results reported in patent EP0411733A2, “11-Beta-aryle-gona-4,9-dien-3-ones” (SCHERING AKTIENGESELLSCHAFT, priority 1989, dated 1991).

Test system: weibliche gravide Raten
Test: abortive effect (inhibition of fertility) in pregnant rats, subcutaneous treatment
Type: in vivo
Settings: Gesamtdosis 2 mg/Tier/4d, subkutan in Erdnußöl, 5. bis 8. Graviditätstag, Autopsie am 20. Graviditätstag; for Fertilitätshemmung absol.: N = 6
Text: Zur Kennzeichnung der antigestagenen Wirkung dient die tierexperimentell ermittelt abortive Wirkung der Substanzen. Zu diesem Zweck wurden weibliche gravide Raten (positiver Spermiennachweis = 1 Graviditätstag) im Gewicht zwischen 180 und 200 g am 5. bis 8. Graviditätstag mit der Testverbindung in Erdnußöl suspendiert subkutan behandelt. Nach Autopsie am 20. Graviditätstag wurden die Uterie untersucht. Dabei wurde die Anzahl der graviden Weibchen und die durchschnittliche Zahl der Feten pro gravides Tier festgestellt. Der Hemmeffekt wurde wie folgt berechnet: [formula]

Row | Structure (SMILES) | Fertilitätshemmung rel. % | Fertilitätshemmung absol.
1 | CC#C[C@]1(O)CC[C@H]2[C@@H]3CCC4=CC(=O)CCC4=C3[C@@H](c3ccc(N(C)C)cc3)C[C@@]21C [RU 486, 11β-(4-Dimethylaminophenyl)-17β-hydroxy-17α-(prop-1-inyl)-4,9-estradien-3-on, reference compound] | 80% | 
2 | CC#CC1(OC)CCC2C3CCC4=CC(=O)CCC4=C3C(c3ccc(N(C)C)cc3)CC21C (stereo not drawn) [11β-(4-Dimethylaminophenyl)-17β-methoxy-17α-propinyl-13-methyl-gona-4,9-dien-3-on] | 100% | 6
3 | CC#CC1(OC)CCC2C3CCC4=CC(=O)CCC4=C3C(c3ccc(C(C)=O)cc3)CC21C (stereo not drawn) [11β-(4-Acetylphenyl)-17β-methoxy-17α-propinyl-13-methyl-gona-4,9-dien-3-on] | 100% | 6
4 | C#C[C@]1(OC)CC[C@H]2[C@@H]3CCC4=CC(=O)CCC4=C3[C@@H](c3ccc(C(C)=O)cc3)C[C@@]21C [17β-Methoxy-17α-ethinyl-11β-acetylphenyl, 11β-(4-Acetylphenyl)-17α-ethinyl-17β-methoxy-13-methyl-gona-4,9-dien-3-on] | 100% | 6
5 | COCC1(OC)CCC2C3CCC4=CC(=O)CCC4=C3C(c3ccc(C(C)=O)cc3)CC21C (stereo not drawn) [11β-(4-Acetylphenyl)-17β-methoxy-17α-methoxymethyl-estra-4,9-dien-3-on] | 100% | 6
6 | CO[C@@]12C[C@@H]1C[C@H]1[C@@H]3CCC4=CC(=O)CCC4=C3[C@@H](c3ccc(C(C)=O)cc3)C[C@@]12C [11β-(4-Acetylphenyl)-17β-methoxy-16α,17α-methylen-estra-4,9-dien-3-on] | 100% | 6
